Test results published in patent publication US6699901B1, “Dicarboxylato diammine platinum derivatives and compositions comprising them as anti-tumor agents” (priority 2000, dated 2004).
Entries after “also recorded” stand apart in the source; their conditions may differ. Like-named read-outs stand apart in the source and are kept apart here.

Legend:
nude mice = assay: Acute toxicity dose limiting experiments (LD50)
Procedure: The LD50 of the pharmaceutical composition of the invention is tested as follows, for example: […]

[1] = test system: human hepatic cancer cells BEL-7402; assay: IC50 on human hepatic cancer cells BEL-7402; type: cell-based
[2] = test system: cells of adenocarcinoma of breast; assay: IC50 on human breast cancer cells; type: cell-based
Solubility in water = type: physicochemical
Stability in water = type: physicochemical; conditions: after dissolved in water
[3] = Effectiveness on oral administration; type: in vivo
human hepatic cancer H22 = conditions: for response carcinostatic rate: intravenous, daily for seven days
Procedure: (§1) The mice were divided into three groups, which were given large dose (LD50×⅕), middle dose (LD50× 1/10) and small dose (LD50× 1/20) respectively. […] Beijing's institute for drug control carried out human hepatic cancer H22 nude mice inoculation carcinostatic rate experiments. […] Every group was given 0.2 ml every time per day for seven consecutive days. The mice were put to death thirty days after inoculation.

[4] = Antitumor effects (test not specified)
Kunming mice = assay: Acute toxicity, IP once a day for ten days, LD50 by Bliss method; type: in vivo
Description: a). Divided 50 Kunming mice randomly into 5 groups, each having 10 mice, weighing from 18 g to 22 g and being half male and half female.

[5] = test system: human breast cancer, lung cancer, hepatic cancer, colorectal cancer and ovary cancer; assay: Nude mice inoculation carcinostatic rate experiments, human cancers; type: in vivo; conditions: for response carcinostatic rate: injected abdominally
Procedure: as §1

rats = assay: Long-term toxicity experiments in rats
Description: Thus we can not only know the target organs of toxic reactions and the reversibility of the damages through observing the main body reactions and degrees of injuries after three months of administration, but also determine nontoxic dose to provide reference for therapeutic safe dose.
c). […] Weighed the rats once a week and adjusted doses according to weight changes. Stopped administration after 12 weeks and continued observing for 2 weeks.

[6] = test system: human hepatic cancer BEL-7402 cells; assay: Dynamic growth of BEL-7402 cells cultured in vitro; type: cell-based; conditions: 10 μg/ml and 20 μg/ml, observed for eight days
Procedure: 1. […] From the third day on, the survival cells in the treated group were less than that in the control group, in which the cells grew logarithmically while those in the treated group decreased gradually. The difference among the groups became wider as time went by; moreover, the survival cells of 20 μg/ml group were less than those of 10 μg/ml group.
c). […] Then observed the dynamic growth of the cells for eight days. […] From the third day on, the cells in the control group grew logarithmically while those in the treated group decreased gradually. The difference among the groups became wider as time went by.

lung cancer cells = assay: Selective killing experiment, lung cancer cells; type: cell-based, human; conditions: within a certain range of doses
melanoma cells = assay: Selective killing experiment, melanoma cells; type: cell-based, human; conditions: within a certain range of doses
[7] = test system: human hepatic cancer BEL-7402 cells; assay: Ultra-microstructure of BEL-7402 cells by transmission electronic microscope; type: cell-based; conditions: different doses
Description: 3. […] Then the changes of the ultra-microstructure were observed via transmission electronic microscope. […] The vacuoles and the lipid drop in the plasma increased drastically until necrotic changes, karyopyknosis, karyorrhexis, karyolysis and complete disintegration occurred (FIG. 6-FIG. 11).
e). […] The cells untreated appeared in the shape of irregular polygon, with abundant microvilli on the cell surface, plentiful organelles and different amount of glycogen granules in the plasma. […] The vacuoles and the lipid drop in the plasma increased drastically until necrotic changes, karyopyknosis, karyorrhexis, karyolysis and complete disintegration occurred.

[8] = test system: gastric cancer BGC-823 cells; assay: Determination of IC50, MTT, BGC-823 cells; type: cell-based
Procedure: a). Cultured gastric cancer BGC-823 cells in RPMJ-1640 nutritional fluid containing 15% fetal calf serum; then inoculated them onto 96-well culture plate, 1×10^4 cells per well; Put it in an incubator with temperature of 37° C. and 5% of CO2. […] After 72 hours of culture, added MTT fluid. An hour later, DMSO was added for coloration. OD value was assayed with enzyme labeling instrument. Finally, calculated the response rate of the drug in each concentration and determined IC50 based on the coordinate process.

[9] = test system: human oral cancer KB cells; assay: Determination of IC50, MTT, KB cells; type: cell-based; conditions: for Response rate: KB
hepatic cancer H22 cells = assay: Carcinostatic rates on hepatic cancer H22 in Kunming mice; type: in vivo; conditions: for Tumor Weight: daily for seven days; for Mice After Injection: 10 mice before injection
Procedure: a). Divided 40 Kunming mice with weight ranging from 21 to 22 g, half male and half female randomly into 4 groups. Every group had 10 mice. Inoculated every mouse with 0.2 ml hepatic cancer H22 cells subcutaneously in right abdomen. […] The control group was given normal saline IP. The mice were put to death the day after withdrawal. Weighed the bodies and the tumor, calculated the carcinostatic rates.

carnuncle S180 = assay: Carcinostatic rates against carnuncle S180 in mice; type: in vivo, Kunming mice; conditions: for Mice After Injection: 10 mice before injection
cancer = assay: Typical cases treated by oral capsules and injections; type: in vivo, human
Description: 1. The oral capsules were composed of bicycloplatin and adjuvant.
2. […] A course of treatment took 6 times (12 ampoules). The second course of treatment began after an interval of two weeks. After three consecutive courses of treatment, general examination was taken.

[10] = Toxic reactions in clinical trial (five-degree classification by WHO); type: in vivo, human
[11] = after two times of administration of the smallest dose based on LD50
[12] = 12th week of administration and 2 weeks after withdrawal
[13] = rats, oral LD50/10 once a day for 90 days

N.N.O=C([O-])C1(C(=O)[O-])CCC1.[Pt+2] [Carboplatin, carboplatin, reference compound]
LD50 abdominal administration (nude mice; administered abdominally): 130 mg/kg
IC50 [1]: 8.45 mg/L
IC50 [2]: 9.3 mg/L
Solubility in water (Solubility in water): 1.5 g/100 ml
stability in water (Stability in water): lose effectiveness in one day
effectiveness on oral administration [3]: ineffective

N.N.[Cl][Pt][Cl] [Cisplatin, cis-dichlorodiaminoplatin]
stability in water (Stability in water): lose effectiveness in one day
effectiveness on oral administration [3]: ineffective

O=P1(N(CCCl)CCCl)NCCCO1 (stereo not shown) [cyclophosphamide, reference compound]
inhibition rate (human hepatic cancer H22; [11]): 73.15%
state of the mice (human hepatic cancer H22; [11]): most of the mice were near death

Double 1,1-Cyclopropane Dicarboxylic Acid Diaminoplatin Complex
LD50 (nude mice; injected): 180 mg/kg
solubility in water compared with bicycloplatin (Solubility in water): less soluble in water
antitumor effects compared with bicycloplatin [4]: superior

double 1,1-cyclobutane dicarboxylic acid diaminoplatin complex [bicycloplatin]
abnormal manifestations (Kunming mice; IP 96-400 mg/kg): did not occur except local irritation of the high concentration
time of death (Kunming mice; IP 96-400 mg/kg): on the 3rd to 7th day
LD50±SE (Kunming mice; Kunming mice, IP once a day for ten consecutive days, Bliss method): 210.5 ± 1.14 mg/kg
LD50 compared with cisplatin and carboplatin (Kunming mice; determined under the same condition): significantly higher than the LD50 of cisplatin and carboplatin
IC50 [1]: 1.3 mg/L
IC50 [2]: 2.8 mg/L
response carcinostatic rate ([5]; large dose (LD50×⅕)): 90%
response carcinostatic rate ([5]; middle dose (LD50×1/10)): 95%
response carcinostatic rate ([5]; small dose (LD50×1/20)): 70%
carcinostatic rates ([5]; same doses given by stomach lavage, compared with abdominal injection): a little lower carcinostatic rates
death of nude mice (human hepatic cancer H22; every group containing ten mice): No death of nude mice was observed
response carcinostatic rate (human hepatic cancer H22; large dose (LD50×⅕)): 50.85%
response carcinostatic rate (human hepatic cancer H22; middle dose (LD50×1/10)): 57.40%
response carcinostatic rate (human hepatic cancer H22; small dose (LD50×1/20)): 35.20%
BUN, GPT, GOT versus control group (rats; [12]): no significant difference
WBC, RBC, hemoglobin, platelet (rats; [12]): all within normal ranges
histological examination, livers and spleens (rats; after observation): different degrees of hyperemia and edema
histological examination, other visceras (rats; after observation): No organic changes caused by the drug are found
other visceral coefficients (rats; after observation): all normal
weights of the livers (rats; after observation, versus control group): slightly heavier than that of the control group
diet, activity and state of the rats (rats; [13]): no obvious abnormality
mortality (rats; [13]): No mortally occurred
injuries of the drug to viscera (rats; rats, three months of administration): dose-dependent
damage and recovery (rats; small dose): does a little damage to the group and the group can recover fully
reversibility of injuries (rats; therapeutic dose): alleviated after one month of withdrawal
inhibition of growth of BEL-7402 cells [6]: could inhibit the growth of human hepatic cancer BEL-7402 cells cultured in vitro dependent on time and dose; also recorded: potent antitumor effects on human hepatic cancer BEL-7402 cells dependent on doses
lung cancer cells killed (lung cancer cells): 50%
melanoma cells (melanophore) killed (melanoma cells): 80%
cell death [7]: Five days later cell death occurred
changes of the ultra-microstructure [7]: degenerative changes of different degrees with the increase of the concentration of drug; also recorded: degenerative changes of different degrees with the increase of the concentration of bicycloplatin
Response rate ([8]; BGC-823, 0.78 μg/ml): 6.0%
Response rate ([8]; BGC-823, 1.56 μg/ml): 19.0%
Response rate ([8]; BGC-823, 3.13 μg/ml): 21.0%
Response rate ([8]; BGC-823, 6.25 μg/ml): 33.0%
Response rate ([8]; BGC-823, 12.5 μg/ml): 51.0%
Response rate ([8]; BGC-823, 25 μg/ml): 60.0%
Response rate ([8]; BGC-823, 50 μg/ml): 74.6%
Response rate ([8]; BGC-823, 100 μg/ml): 80.3%
Response rate ([8]; BGC-823, 200 μg/ml): 83.3%
IC50 ([8]; BGC-823, 72 hours): IC50 = 14.80 ± 1.34 μg/ml
IC50 ([9]; KB cells, 72 hours): IC50 = 13.24 ± 1.33 μg/ml
Response rate ([9]; 0.78 μg/ml): 5.9%
Response rate ([9]; 1.56 μg/ml): 14.8%
Response rate ([9]; 3.13 μg/ml): 28.2%
Response rate ([9]; 6.25 μg/ml): 26.2%
Response rate ([9]; 12.5 μg/ml): 36.7%
Response rate ([9]; 25 μg/ml): 66.6%
Response rate ([9]; 50 μg/ml): 77.1%
Response rate ([9]; 100 μg/ml): 93.0%
Response rate ([9]; 200 μg/ml): 93.3%
Body Weight After Injection (hepatic cancer H22 cells; H22, 10 mg/kg): 27.9 g
Response rate (hepatic cancer H22 cells; H22, 10 mg/kg): 40.4%
Tumor Weight (hepatic cancer H22 cells; H22, 10 mg/kg abdominally): 0.95 ± 0.29 g
Mice After Injection (hepatic cancer H22 cells; H22, 10 mg/kg): 10
Body Weight After Injection (hepatic cancer H22 cells; H22, 20 mg/kg): 24.4 g
Response rate (hepatic cancer H22 cells; H22, 20 mg/kg): 67.0%
Tumor Weight (hepatic cancer H22 cells; H22, 20 mg/kg abdominally): 0.53 ± 0.26 g
Mice After Injection (hepatic cancer H22 cells; H22, 20 mg/kg): 10
Body Weight After Injection (hepatic cancer H22 cells; H22, 30 mg/kg): 22.4 g
Response rate (hepatic cancer H22 cells; H22, 30 mg/kg): 78.6%
Tumor Weight (hepatic cancer H22 cells; H22, 30 mg/kg abdominally): 0.34 ± 0.09 g
Mice After Injection (hepatic cancer H22 cells; H22, 30 mg/kg): 10
mortality (hepatic cancer H22 cells; H22, 10-30 mg/kg): no mortality occurs
weight gain of the treated groups (hepatic cancer H22 cells; H22, 10-30 mg/kg, versus control group): less than that of the control group
antitumor effects on S180 (carnuncle S180; 10-30 mg/kg): potent antitumor effects on S180 dependent on doses
Body Weight After Injection (carnuncle S180; S180, 10 mg/kg): 25.8 g
Response rate (carnuncle S180; S180, 10 mg/kg): 39.7%
Tumor Weight (carnuncle S180; S180, 10 mg/kg): 1.03 ± 0.30 g
Mice After Injection (carnuncle S180; S180, 10 mg/kg): 10
Body Weight After Injection (carnuncle S180; S180, 20 mg/kg): 18.1 g
Response rate (carnuncle S180; S180, 20 mg/kg): 68.0%
Tumor Weight (carnuncle S180; S180, 20 mg/kg): 0.54 ± 0.16 g
Mice After Injection (carnuncle S180; S180, 20 mg/kg): 10
Body Weight After Injection (carnuncle S180; S180, 30 mg/kg): 21.5 g
Response rate (carnuncle S180; S180, 30 mg/kg): 71.0%
Tumor Weight (carnuncle S180; S180, 30 mg/kg): 0.49 ± 0.16 g
Mice After Injection (carnuncle S180; S180, 30 mg/kg): 10
tumor (cancer; Patient Li, end of the 2nd course of treatment): basically disappeared
lung metastatic carcinoma (cancer; Patient Ma, hepatic cancer, capsules and injections, after two months): disappeared
outcome (cancer; Patient Meng, adenocarcinoma of lung at late stage, injections and oral capsules): cured in general
final outcome (cancer; Patient Wang, late hepatic cancer): the tumor disappeared
outcome (cancer; Patient Yang, melanoma, metastasis to liver and lung, 36 ampoules): The metastatic tumors had been cured and the melanoma had necrosed
three masses with size of 2×2 cm^2 (cancer; Patient Zhu, cystic cancer, oral capsules): disappeared completely
metastasis to liver (cancer; foreign patient, intestinal cancer, 36 ampoules and 36 oral capsules): disappeared
adverse reactions [10]: no adverse reactions occur
antitumor spectrum [4]: Broad Antitumor Spectrum
effectiveness on oral administration [3]: significant therapeutic effects
